ChEMBL document CHEMBL1821607, “N-Arylalkyl-2-azaadamantanes as cage-expanded polycarbocyclic sigma (σ) receptor ligands” (Bioorg Med Chem Lett, 2011)

What was measured:
[1] = Selectivity ratio of Ki for sigma 1 receptor in guinea pig brain to Ki for sigma 2 receptor in rat liver
[2] = Displacement of [3H]DTG from sigma 2 receptor in rat liver homogenates in presence of sigma-1 receptor blocker (+)-pentazocine after 120 mins by liquid scintillation counting; assay type: tissue-based
[3] = molecular target: Sigma non-opioid intracellular receptor 1 (Cavia porcellus, UniProt Q60492); experiment: Displacement of [3H](+)-pentazocine from sigma 1 receptor in guinea pig brain homogenates after 90 mins by scintillation counting; assay type: tissue-based
[4] = Selectivity ratio of Ki for sigma 2 receptor in rat liver to Ki for sigma 1 receptor in guinea pig brain

Chain of Sigma non-opioid intracellular receptor 1 (Q60492 whole entry): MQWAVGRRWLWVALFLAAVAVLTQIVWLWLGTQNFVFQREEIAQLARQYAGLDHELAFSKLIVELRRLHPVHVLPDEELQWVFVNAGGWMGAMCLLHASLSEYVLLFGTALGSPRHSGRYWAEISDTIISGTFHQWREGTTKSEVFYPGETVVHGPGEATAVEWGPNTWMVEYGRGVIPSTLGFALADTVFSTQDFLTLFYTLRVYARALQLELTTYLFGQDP

SMILES: OC12CC3CC(CC(C3)N1CCc1ccc(F)cc1)C2 (racemic)
- Ratio Ki [1]: 1.2
- Ki [2]: 201 nM
- Ki [3]: 246 nM

SMILES: COc1ccc(CN2C3CC4CC(C3)CC2C4)cc1
- Ratio Ki [4]: 4.4
- Ki [2]: 54 nM
- Ki [3]: 12.4 nM

SMILES: Fc1ccc(CCN2C3CC4CC(C3)CC2C4)cc1
- Ratio Ki [4]: 2.7
- Ki [2]: 34 nM
- Ki [3]: 12.8 nM

SMILES: COc1cccc(CN2C3CC4CC(C3)CC2(O)C4)c1 (racemic)
- Ratio Ki [1]: 5.5
- Ki [2]: 353 nM
- Ki [3]: 1950 nM

SMILES: Fc1ccc(CN2C3CC4CC(C3)CC2C4)cc1
- Ratio Ki [4]: 7.5
- Ki [2]: 90 nM
- Ki [3]: 12 nM

SMILES: Fc1cccc(CCN2C3CC4CC(C3)CC2C4)c1
- Ratio Ki [4]: 4.8
- Ki [2]: 40 nM
- Ki [3]: 8.3 nM

SMILES: OC12CC3CC(CC(C3)N1Cc1ccc(F)cc1)C2 (racemic)
- Ratio Ki [4]: 1.3
- Ki [2]: 826 nM
- Ki [3]: 650 nM

SMILES: COc1ccc(CN2C3CC4CC(C3)CC2(O)C4)cc1 (racemic)
- Ratio Ki [1]: 2.9
- Ki [2]: 426 nM
- Ki [3]: 1240 nM

SMILES: COc1cccc(CN2C3CC4CC(C3)CC2C4)c1
- Ratio Ki [1]: 3.7
- Ki [2]: 64 nM
- Ki [3]: 239 nM

SMILES: OC12CC3CC(CC(C3)N1CCc1cccc(F)c1)C2 (racemic)
- Ratio Ki [4]: 1.1
- Ki [2]: 250 nM
- Ki [3]: 234 nM
